The target of one assay is EZH2 Mutant Y641N (Homo sapiens (Human), UniProt Q15910, Y641N). As to the kind of experiment: EZH2 Mutant Y641N nucleosome assay. It is filed as biochemical. Particulars: PRC2 4-protein complex 6 nM, 1.5 μM SAM, HeLa oligonucleosomes. On the procedure:
(§1) The genes for EZH2, EED, SUZ12, and RBBP4 proteins were cloned into pBacPAK9 vectors (Clontech). RBBP4 was FLAG tagged on the N-terminal end. The baculovirus expressions of these proteins were used to co-infect SF9 insect cells. Insect cell pellets were lysed in a buffer containing 25 mM Tris pH8.0, 300 mM NaCl, 0.5 mM TCEP, complete EDTA-free protease inhibitor (Roche), 0.1% NP-40. The supernatant from the lysate was incubated with FLAG® M2 antibody resin (Sigma). The resin was washed on the chromatography column and eluted with 0.2 mg/ml FLAG peptide. The elute was incubated with omnicleave nucleases (Epicentre Technologies) at 4° C. overnight, then concentrated and loaded onto a Superdex 200 (GE Healthcare) column. The Superdex 200 column was eluted with 25 mM Tris pH8.0, 150 mM NaCl, 0.5 mM TCEP. Fractions containing the PRC2 complex were pooled.
(§2) A. Compound preparation • 1.
(§3) B. Reagent preparation • 1. […] Dilute TCA to 20% in DI water
(§4) C. Enzyme reaction • 1. […] Some compounds were tested under high SAM conditions.
(§5) D. Data analysis • 1. IC50 values were determined by fitting the data to a 4-parameter IC50 equation using proprietary curve fitting software. • 2. For compounds tested under high SAM conditions, Ki^app values were obtained by fitting the dose response curve to a model for competitive inhibition using proprietary curve fitting software. Preparation of HeLa Oligonucleosomes: Reagents • Cell Pellet: 15 L HeLa S3 (Accelgen)+6 L HeLa S3 (in house) • Mnase (Worthington Biochemicals) Equipment • SW-28 Rotor • Dounce Homogenizer/B Pestle Buffers • Lysis: 20 mM Hepes pH 7.5, 0.25M Sucrose, 3 mM MgCl2, 0.5% Nonidet P-40, 0.5 mM TCEP, 1 Roche Protease Tablet • B: 20 mM Hepes pH7.5, 3 mM MgCl2, 0.5 mM EDTA, 0.5 mM TCEP, 1 Roche Protease Tablet • MSB: 20 mM Hepes pH7.5, 0.4 M NaCl, 1 mM EDTA, 5% v/v Glycerol, 0.5 mM TCEP, 0.2 mM PMSF • LSB: 20 mM Hepes pH7.5, 0.1M NaCl, 1 mM EDTA, 0.5 mM TCEP, 0.2 mM PMSF • NG: 20 mM Hepes pH7.5, 1 mM EDTA, 0.4 m NaCl, 0.2 mM PMSF, 0.5 mM TCEP • Storage: 20 mM Hepes pH7.5, 1 mM EDTA, 10% Glycerol, 0.2 mM PMSF, 0.5 mM TCEP Protocol

For the next assay, the target named is WT EZH2 (Homo sapiens (Human), UniProt Q15910). Briefly: WT EZH2 nucleosome assay (10X SAM, high SAM conditions). It is filed as biochemical. Particulars: 15 uM SAM, Ki app from competitive inhibition fit. How it is done: as §1, §2, §3, §4, §5
Chain of WT EZH2 (Q15910 whole entry, looked up): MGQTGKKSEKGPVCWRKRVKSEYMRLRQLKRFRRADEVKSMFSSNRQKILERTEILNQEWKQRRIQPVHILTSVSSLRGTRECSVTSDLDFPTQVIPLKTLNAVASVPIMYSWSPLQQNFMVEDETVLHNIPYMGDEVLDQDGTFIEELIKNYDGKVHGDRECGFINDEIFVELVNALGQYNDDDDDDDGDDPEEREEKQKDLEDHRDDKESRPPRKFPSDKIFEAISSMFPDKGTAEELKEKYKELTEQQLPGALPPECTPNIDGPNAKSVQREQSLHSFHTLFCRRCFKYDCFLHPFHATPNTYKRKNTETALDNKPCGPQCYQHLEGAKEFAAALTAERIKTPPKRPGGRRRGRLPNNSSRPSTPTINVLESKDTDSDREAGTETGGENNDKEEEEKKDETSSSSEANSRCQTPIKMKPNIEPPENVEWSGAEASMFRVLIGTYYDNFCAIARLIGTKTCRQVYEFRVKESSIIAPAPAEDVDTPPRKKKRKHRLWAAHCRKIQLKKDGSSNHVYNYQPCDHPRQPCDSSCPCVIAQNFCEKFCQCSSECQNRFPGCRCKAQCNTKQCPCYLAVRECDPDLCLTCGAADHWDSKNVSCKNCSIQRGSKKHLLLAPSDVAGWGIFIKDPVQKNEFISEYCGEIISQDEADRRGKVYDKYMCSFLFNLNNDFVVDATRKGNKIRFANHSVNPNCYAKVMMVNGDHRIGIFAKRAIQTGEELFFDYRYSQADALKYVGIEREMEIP
Chain of WT EZH2 (O75530 whole entry partner, looked up): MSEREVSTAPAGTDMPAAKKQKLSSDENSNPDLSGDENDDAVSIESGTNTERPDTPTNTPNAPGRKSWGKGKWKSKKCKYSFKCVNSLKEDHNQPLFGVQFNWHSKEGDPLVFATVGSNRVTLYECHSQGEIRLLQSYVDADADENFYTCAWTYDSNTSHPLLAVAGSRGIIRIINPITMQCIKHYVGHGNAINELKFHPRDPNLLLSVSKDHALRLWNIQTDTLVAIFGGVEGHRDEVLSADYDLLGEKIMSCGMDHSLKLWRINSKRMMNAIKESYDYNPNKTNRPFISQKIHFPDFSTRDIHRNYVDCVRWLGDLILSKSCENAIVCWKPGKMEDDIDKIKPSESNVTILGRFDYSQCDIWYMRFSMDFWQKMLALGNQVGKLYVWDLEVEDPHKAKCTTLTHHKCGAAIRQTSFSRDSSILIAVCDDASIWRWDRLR
Chain of WT EZH2 (Q15022 whole entry partner, looked up): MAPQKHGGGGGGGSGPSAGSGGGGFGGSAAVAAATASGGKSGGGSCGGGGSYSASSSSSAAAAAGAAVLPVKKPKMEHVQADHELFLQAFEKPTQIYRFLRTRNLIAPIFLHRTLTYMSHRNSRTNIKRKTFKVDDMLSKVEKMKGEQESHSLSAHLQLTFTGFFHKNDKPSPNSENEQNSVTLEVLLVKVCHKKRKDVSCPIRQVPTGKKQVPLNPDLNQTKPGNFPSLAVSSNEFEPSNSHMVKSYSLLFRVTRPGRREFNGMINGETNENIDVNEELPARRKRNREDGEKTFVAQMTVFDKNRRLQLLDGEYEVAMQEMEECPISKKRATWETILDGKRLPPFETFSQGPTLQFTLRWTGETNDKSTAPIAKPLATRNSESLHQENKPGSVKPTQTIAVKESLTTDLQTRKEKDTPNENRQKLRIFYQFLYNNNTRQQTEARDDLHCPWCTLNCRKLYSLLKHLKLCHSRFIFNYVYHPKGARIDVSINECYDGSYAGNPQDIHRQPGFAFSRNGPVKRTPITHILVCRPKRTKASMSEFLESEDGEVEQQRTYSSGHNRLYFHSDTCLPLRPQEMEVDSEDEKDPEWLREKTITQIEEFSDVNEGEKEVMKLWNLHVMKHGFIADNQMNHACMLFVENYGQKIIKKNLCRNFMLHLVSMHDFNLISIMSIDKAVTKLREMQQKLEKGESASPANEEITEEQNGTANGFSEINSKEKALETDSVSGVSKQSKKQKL
Chain of WT EZH2 (Q09028 whole entry partner, looked up): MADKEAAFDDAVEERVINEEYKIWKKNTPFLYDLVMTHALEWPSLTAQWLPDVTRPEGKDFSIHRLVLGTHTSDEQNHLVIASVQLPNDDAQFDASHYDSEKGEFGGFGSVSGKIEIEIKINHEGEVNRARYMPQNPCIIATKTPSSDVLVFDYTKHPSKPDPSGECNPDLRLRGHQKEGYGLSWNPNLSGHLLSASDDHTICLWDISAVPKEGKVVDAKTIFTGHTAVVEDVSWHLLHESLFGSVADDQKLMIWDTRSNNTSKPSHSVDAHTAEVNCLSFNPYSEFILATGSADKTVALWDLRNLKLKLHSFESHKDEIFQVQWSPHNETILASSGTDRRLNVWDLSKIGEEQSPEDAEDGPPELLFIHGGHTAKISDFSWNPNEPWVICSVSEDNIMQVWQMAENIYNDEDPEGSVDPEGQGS
[1] abbreviates: read-out: EZH2 Mutant Y641N Nucleosome assay IC50.
[2] abbreviates: read-out: WT EZH2 Nucleosome assay (10X SAM) Ki.
Where [3] appears, read: EZH2 Mutant Y641N Nucleosome assay IC50 (μM).
Setting [4] is: WT EZH2 Nucleosome assay (10X SAM) Ki (μM).

A word on the IC50: it is the concentration that gives 50% inhibition.

Like-named read-outs stand apart in the source and are kept apart here.

Chain of EZH2 Mutant Y641N (Q15910 whole entry Y641N, looked up): as the sequence (Q15910 whole entry, looked up) above, with Y641N counted along it
Chain of EZH2 Mutant Y641N (O75530 whole entry partner, looked up): as the sequence (O75530 whole entry partner, looked up) above
Chain of EZH2 Mutant Y641N (Q15022 whole entry partner, looked up): as the sequence (Q15022 whole entry partner, looked up) above
Chain of EZH2 Mutant Y641N (Q09028 whole entry partner, looked up): as the sequence (Q09028 whole entry partner, looked up) above

In the case of `COc1cc(C)[nH]c(=O)c1CN1CCc2c(C)cc([C@H](OC)[C@H]3CCOC3)c(Cl)c2C1=O` (single isomer, unassigned) [Example 84, 8-chloro-2-[(4-methoxy-6-methyl-2-oxo-1,2-dihydropyridin-3-yl)methyl]-7-{(R*)-methoxy[(3S*)-tetrahydrofuran-3-yl]methyl}-5-methyl-3,4-dihydroisoquinolin-1(2H)-one], the concentration for half-maximal inhibition (IC50) on EZH2 Mutant Y641N (setting [1]) turned out to be 0.002 µM. For the same compound, the Ki at WT EZH2 (setting [2]) is 0.2 nM.
The corresponding values for `COc1cc(C)[nH]c(=O)c1CN1CCc2c(C)cc([C@@H](OC)[C@@H]3CCOC3)c(Cl)c2C1=O` (single isomer, unassigned) [Example 85, 8-chloro-2-[(4-methoxy-6-methyl-2-oxo-1,2-dihydropyridin-3-yl)methyl]-7-{(S*)-methoxy[(3R*)-tetrahydrofuran-3-yl]methyl}-5-methyl-3,4-dihydroisoquinolin-1(2H)-one] are 0.238 µM and 52 nM.
In the case of `COc1cc(C)[nH]c(=O)c1CN1CCc2c(Cl)cc(C(C)C3CN(C)C3)c(Cl)c2C1=O` (single isomer, unassigned) [Example 87, 5,8-dichloro-2-[(4-methoxy-6-methyl-2-oxo-1,2-dihydropyridin-3-yl)methyl]-7-[1-(1-methylazetidin-3-yl)ethyl]-3,4-dihydroisoquinolin-1 (2H)-one], the IC50 on EZH2 Mutant Y641N (setting [1]) was determined as 0.002 µM. Besides, the Ki at WT EZH2 (setting [2]) was determined as 0.01 nM.
For `COc1cc(C)[nH]c(=O)c1CN1CCc2c(Cl)cc(C(C)C3CN(C)C3)c(Cl)c2C1=O` (single isomer, unassigned) [Example 88, 5,8-dichloro-2-[(4-methoxy-6-methyl-2-oxo-1,2-dihydropyridin-3-yl)methyl]-7-[1-(1-methylazetidin-3-yl)ethyl]-3,4-dihydroisoquinolin-1 (2H)-one] the same measures were 0.122 µM and 28 nM.
As to `Cc1cc(OC(F)F)c(CN2CCc3c(Cl)cc(C(CO)C4CCOC4)c(Cl)c3C2=O)c(=O)[nH]1` (single isomer, unassigned) [Example 92], the IC50 at EZH2 Mutant Y641N (setting [1]) was found to be 0.009 µM. Moreover, the Ki at WT EZH2 (setting [2]) stood at 1 nM.
Consider `Cc1cc(OC(F)F)c(CN2CCc3c(Cl)cc(C(CO)C4CCOC4)c(Cl)c3C2=O)c(=O)[nH]1` (single isomer, unassigned) [Example 93], for which the IC50 at EZH2 Mutant Y641N (setting [1]) is 1.33 µM. The Ki on WT EZH2 (setting [2]) stood at 159 nM.
As to `Cc1cc(OC(F)F)c(CN2CCc3c(Cl)cc(C(CO)C4CCOC4)c(Cl)c3C2=O)c(=O)[nH]1` (single isomer, unassigned) [Example 94], at EZH2 Mutant Y641N (setting [1]), the IC50 was 4.87 µM. Further, on WT EZH2 (setting [2]), the Ki is 323 nM.
For `Cc1cc(OC(F)F)c(CN2CCc3c(Cl)cc(C(CO)C4CCOC4)c(Cl)c3C2=O)c(=O)[nH]1` (single isomer, unassigned) [Example 95] the same measures were 0.012 µM and 1 nM.
For `Cc1cc(C)c(CN2CCc3ccc(C(CO)C4CCOC4)c(Cl)c3C2=O)c(=O)[nH]1` (single isomer, unassigned) [Example 96] the same measures were 2.99 µM and 204 nM.
The corresponding values for `Cc1cc(C)c(CN2CCc3ccc(C(CO)C4CCOC4)c(Cl)c3C2=O)c(=O)[nH]1` (single isomer, unassigned) [Example 97] are 0.027 µM and 3 nM.
For `Cc1cc(C)c(CN2CCc3ccc(C(CO)C4CCOC4)c(Cl)c3C2=O)c(=O)[nH]1` (single isomer, unassigned) [Example 98], on EZH2 Mutant Y641N (setting [1]), the concentration for half-maximal inhibition (IC50) was 8.72 µM. For the same compound, at WT EZH2 (setting [2]), the Ki stood at 1220 nM.
For the compound `Cc1cc(C)c(CN2CCc3ccc(C(CO)C4CCOC4)c(Cl)c3C2=O)c(=O)[nH]1` (single isomer, unassigned) [Example 99], the IC50 at EZH2 Mutant Y641N (setting [1]) was 0.017 µM. Besides, on WT EZH2 (setting [2]), the Ki is 3 nM.
The corresponding values for `Cc1cc(C)c(CN2CCc3c(C)cc(C(CO)C4CCOCC4)c(Cl)c3C2=O)c(=O)[nH]1` (single isomer, unassigned) [Example 100] are 3.73 µM and 309 nM.
For `Cc1cc(C)c(CN2CCc3c(C)cc(C(CO)C4CCOCC4)c(Cl)c3C2=O)c(=O)[nH]1` (single isomer, unassigned) [Example 101] the same measures were 0.007 µM and 0.3 nM.
On to `Cc1cc(C)c(CN2CCc3c(Cl)cc(C(CO)O[C@@H]4CCOC4)c(Cl)c3C2=O)c(=O)[nH]1` (single isomer, unassigned) [Example 103], for which the IC50 at EZH2 Mutant Y641N (setting [1]) stood at 0.32 µM. Also, the Ki at WT EZH2 (setting [2]) was found to be 52 nM.
The corresponding values for `Cc1cc(C)c(CN2CCc3c(Cl)cc(C(CO)O[C@@H]4CCOC4)c(Cl)c3C2=O)c(=O)[nH]1` (single isomer, unassigned) [Example 104] are 7.77 µM and 673 nM.
The corresponding values for `CCC(OC)c1cc(Cl)c2c(c1Cl)C(=O)N(Cc1c(OC)cc(C)[nH]c1=O)CC2` (single isomer, unassigned) [Example 107] are 0.018 µM and 1.9 nM.
Turning to `CCC(OC)c1cc(Cl)c2c(c1Cl)C(=O)N(Cc1c(OC)cc(C)[nH]c1=O)CC2` (single isomer, unassigned) [Example 108], the IC50 on EZH2 Mutant Y641N (setting [1]) is 0.016 µM. Also, the Ki on WT EZH2 (setting [2]) amounted to 1.7 nM.
For `COC(c1cc(Cl)c2c(c1Cl)C(=O)N(Cc1c(C)cc(C)[nH]c1=O)CC2)C1CC[S+]([O-])CC1` (single isomer, unassigned) [Example 114], the IC50 at EZH2 Mutant Y641N (setting [1]) turned out to be 0.152 µM. Further, the Ki on WT EZH2 (setting [2]) came to 16 nM.
For `COC(c1cc(Cl)c2c(c1Cl)C(=O)N(Cc1c(C)cc(C)[nH]c1=O)CC2)C1CC[S+]([O-])CC1` (single isomer, unassigned) [Example 115] the same measures were 0.005 µM and 0.3 nM.
The corresponding values for `COc1cc(C)[nH]c(=O)c1CN1CCc2c(Cl)cc(C(OC)C3CCN(C=O)CC3)c(Cl)c2C1=O` (single isomer, unassigned) [Example 118] are 0.003 µM and 0.1 nM.
Turning to `COc1cc(C)[nH]c(=O)c1CN1CCc2c(Cl)cc(C(OC)C3CCN(C=O)CC3)c(Cl)c2C1=O` (single isomer, unassigned) [Example 119], the IC50 at EZH2 Mutant Y641N (setting [1]) came to 0.1 µM. For the same compound, at WT EZH2 (setting [2]), the Ki stood at 15 nM.
As to `COC(c1cc(Cl)c2c(c1Cl)C(=O)N(Cc1c(C)cc(C)[nH]c1=O)CC2)C1(F)CCN(C)CC1` (single isomer, unassigned) [Example 120], at EZH2 Mutant Y641N (setting [1]), the IC50 is 0.014 µM. Moreover, at WT EZH2 (setting [2]), the Ki was determined as 2 nM.
Take `COC(c1cc(Cl)c2c(c1Cl)C(=O)N(Cc1c(C)cc(C)[nH]c1=O)CC2)C1(F)CCN(C)CC1` (single isomer, unassigned) [Example 121]: on EZH2 Mutant Y641N (setting [1]), the IC50 was 0.255 µM. For the same compound, the Ki on WT EZH2 (setting [2]) is 29 nM.
For `COc1cc(C)[nH]c(=O)c1CN1CCc2c(Cl)cc(C(OC)C3CCN(C(C)=O)CC3)c(Cl)c2C1=O` (single isomer, unassigned) [Example 122] the same measures were 0.236 µM and 73 nM.
The corresponding values for `COc1cc(C)[nH]c(=O)c1CN1CCc2c(Cl)cc(C(OC)C3CCN(C(C)=O)CC3)c(Cl)c2C1=O` (single isomer, unassigned) [Example 123] are 0.005 µM and 0.2 nM.
As to `COc1cc(C)[nH]c(=O)c1CN1CCc2c(Cl)cc(C(OC)C3CCOC3)c(Cl)c2C1=O` (single isomer, unassigned) [Example 124], half-maximal inhibition at EZH2 Mutant Y641N (setting [3]) (IC50) was put at 0.892 µM. In addition, the Ki at WT EZH2 (setting [4]) is 58 nM.
For `COc1cc(C)[nH]c(=O)c1CN1CCc2c(Cl)cc(C(OC)C3CCOC3)c(Cl)c2C1=O` (single isomer, unassigned) [Example 125] the same measures were 0.008 µM and 0.9 nM.
In the case of `COc1cc(C)[nH]c(=O)c1CN1CCc2c(Cl)cc(C(OC)C3CCOC3)c(Cl)c2C1=O` (single isomer, unassigned) [Example 126], the half-inhibitory concentration (IC50) on EZH2 Mutant Y641N (setting [3]) stood at 0.165 µM. For the same compound, on WT EZH2 (setting [4]), the Ki came out at 56 nM.
For `COc1cc(C)[nH]c(=O)c1CN1CCc2c(Cl)cc(C(OC)C3CCOC3)c(Cl)c2C1=O` (single isomer, unassigned) [Example 127] the same measures were 0.0022 µM and 0.2 nM.

These data come from patent publication US10570121B2, “Substituted dihydroisoquinolinone compounds” (priority 2014, dated 2020).
